We go through three molecules from patent US20190119348A1, “PARATHYROID HORMONE RECEPTOR 1 ANTAGONIST AND INVERSE AGONIST POLYPEPTIDES AND METHODS OF THEIR USE” (The General Hospital Corporation, priority 2016, published 2019).

One assay deals with T1, PTHR1 (Homo sapiens, UniProt Q03431).
T1 construct: expressed in transfected cells; host or cells: GP-2.3 (HEK-293 stably transfected with hPTHR1 and GloSensor)
T1 sequence (Q03431 27-593): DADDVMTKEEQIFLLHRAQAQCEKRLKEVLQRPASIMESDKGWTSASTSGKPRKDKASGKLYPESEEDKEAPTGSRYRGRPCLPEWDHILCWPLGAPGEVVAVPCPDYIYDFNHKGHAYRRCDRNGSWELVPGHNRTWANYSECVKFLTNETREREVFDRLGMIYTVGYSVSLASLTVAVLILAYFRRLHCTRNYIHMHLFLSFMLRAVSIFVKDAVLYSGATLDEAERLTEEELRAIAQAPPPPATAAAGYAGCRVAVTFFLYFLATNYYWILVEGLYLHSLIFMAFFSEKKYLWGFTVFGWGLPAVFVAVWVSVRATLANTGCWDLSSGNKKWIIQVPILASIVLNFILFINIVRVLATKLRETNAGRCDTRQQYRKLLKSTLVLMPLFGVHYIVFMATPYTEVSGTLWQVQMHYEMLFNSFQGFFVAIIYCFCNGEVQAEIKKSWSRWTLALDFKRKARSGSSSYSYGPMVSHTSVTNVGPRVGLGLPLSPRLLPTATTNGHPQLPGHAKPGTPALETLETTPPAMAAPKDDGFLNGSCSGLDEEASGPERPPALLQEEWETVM
The assay can be described thus: Antagonism of PTH(1-34)-induced cAMP response (GloSensor) in GP-2.3 cells. The format is cell-based. The note with it: inhibition of PTH(1-34)-induced maximum response, read-out: corresponding nanomolar value of pIC50 (Table 4) (converted). Here is the method:
(§1) cAMP signaling was assessed in the HEK293-derived or SaOS2-derived cell lines stably expressing the luciferase-based GloSensor™ cAMP reporter (Hattersley et al., Paper presented at: Novel Signaling Mechanisms and Bone Cell Biology 2014; Binkowski et al., Methods in molecular biology. 756:263-271). HEK-293 cells were further transfected to stably express the hPTHR1, hPTHR1-H223R, or hPTHR1-T410P. The cells were seeded into 96-well white plates and were assayed 24 to 48 hours post-confluency. Assays were performed at room temperature in CO2-independent culture media (Life Technologies, Corp., Carlsbad, Calif.) containing 0.1% BSA (CIDB). The cells were pre-loaded with luciferin (0.5 mM in CIDB) for 15 minutes, then PTH peptides were added at varying concentrations. cAMP-dependent luminescence was measured at two-minute intervals using a PerkinElmer Envision plate reader. The time at which maximum luminescence (cps) observed with agonist alone, typically at 10-20 minutes after agonist addition, was used to obtain data from wells containing antagonist with or without agonist, to thus generate antagonist ligand dose-response curves. The resulting cps values were then plotted against ligand concentration using GraphPad Prism 7.0 software and a four-parameter logistics curve fitting equation, which yielded parameters of inhibitory potency (pIC50).
Pharmacological properties of the ligands were assessed in cells expressing the PTHR1 and the GloSensor™ cAMP reporter. The assays used GP-2.3 cells, derived from HEK293 cells by stable transfection with the hPTHR1 and GloSensor™, as well as SGS-72 cells, which are derived from the human osteosarcoma cell line, Saos-2, in which is endogenously expressed the hPTHR1, by stable transfection with GloSensor™. Binding of representative polypeptides to the PTHR1 was assessed in GP-2.3 cells by radioligand competition methods (FIGS. 1A and 1B, Table 3).
[…] concentration of antagonist that inhibited the maximum response to PTH(1-34)-induced in the absence of antagonist (at ˜40 minutes) is reported in units of -log M (pIC50), and the corresponding nanomolar value is shown below each pIC50 value. Data are means of the number of experiments indicated (n). The PTH(1-34)-induced maximum luminescence was ˜80,000 cps and the basal was ˜1,000 cps. TMR indicates Lys13 modified at epsilon amino function with TMR, P vs. inhibition by dW12,Y34-bPTH(7-34).

A further assay addresses T2, human PTHR1-T410P (Homo sapiens, UniProt Q03431, T410P).
T2 construct: expressed in transfected cells; host or cells: GTP-4 (HEK-293 stably expressing GloSensor and PTHR1-T410P)
T2 sequence (Q03431 27-593 T410P): T1 sequence (Q03431 27-593) with T384P
Put plainly: Inverse agonism on basal cAMP signaling in GTP-4 cells. The note with it: GTP-4 cells (HEK293/GloSensor). Type of assay: cell-based. As for the experimental part: as §1
These experiments were performed in HEK-293 cells stably transfected to express the GloSensor™ cAMP reporter along with a constitutively active mutant human PTHR1. The HEK-293 cells stably expressing GloSensor™ cAMP reporter along with a constitutively active mutant human PTHR1-H223R are GHR-10 cells. The HEK-293 cells stably expressing GloSensor™ cAMP reporter along with a constitutively active mutant human PTHR1-T410P are GTP-4 cells. […] Effects on basal cAMP signaling over time were assessed during periods of direct ligand addition (FIGS. 15A-15F). The measurements were performed by recording GloSensor™ luminescence as counts per second (cps) using a PerkinElmer Envision plate reader. […]

Changes are numbered by the printed parent chain. Where a SMILES comes first, the peptide text is derived from it. [ ]: non-standard residue; d: D form. Nle = CCCC[C@H](N)C(=O)O

As for `CC[C@H](C)[C@H](N)C(=O)N[C@@H](CCC(N)=O)C(=O)N[C@@H](CC(C)C)C(=O)N[C@@H](CCSC)C(=O)N[C@@H](Cc1c[nH]cn1)C(=O)N[C@@H](CCC(N)=O)C(=O)N[C@@H](CCCNC(=N)N)C(=O)N[C@H](Cc1c[nH]c2ccccc12)C(=O)N[C@@H](CCCCN)C(=O)N[C@@H](Cc1c[nH]c2ccccc12)C(=O)N[C@H](C(=O)N[C@@H](CCC(N)=O)C(=O)N[C@@H](CC(=O)O)C(=O)N[C@@H](C)C(=O)N[C@@H](CCCNC(=N)N)C(=O)N[C@@H](CCCNC(=N)N)C(=O)N[C@@H](CCCNC(=N)N)C(=O)N[C@@H](C)C(=O)N[C@@H](Cc1c[nH]c2ccccc12)C(=O)N[C@@H](CC(C)C)C(=O)N[C@@H](Cc1c[nH]cn1)C(=O)N[C@@H](CCCCN)C(=O)N[C@@H](CC(C)C)C(=O)N[C@H](C(=O)N[C@@H](C)C(=O)N[C@@H](CCC(=O)O)C(=O)N[C@H](C(=O)N[C@@H](Cc1c[nH]cn1)C(=O)N[C@H](C(=O)N[C@@H](C)C(=O)N[C@@H](CCC(=O)O)C(=O)N[C@H](C(N)=O)[C@@H](C)CC)[C@@H](C)O)[C@@H](C)CC)[C@@H](C)CC)[C@@H](C)CC` [compound 1949, dW12, W23-LA-PTH(5-36)] (H-IQLMHQR[dW]KWIQDARRRAWLHKLIAEIHTAEI-NH2; N-terminus assumed), at PTHR1, the IC50 is 101 nM. Moreover, the “inverse agonist properties on constitutively active PTHR1-T410P (basal cAMP)” value at human PTHR1-T410P was “exhibited inverse agonist properties”.
For the molecule `CC[C@H](C)[C@H](NC(=O)[C@H](CCC(=O)O)NC(=O)[C@H](C)NC(=O)[C@@H](NC(=O)[C@H](Cc1c[nH]cn1)NC(=O)[C@@H](NC(=O)[C@H](CCC(=O)O)NC(=O)[C@H](C)NC(=O)[C@@H](NC(=O)[C@H](CC(C)C)NC(=O)[C@H](CCCCN)NC(=O)[C@H](Cc1c[nH]cn1)NC(=O)[C@H](CC(C)C)NC(=O)[C@H](Cc1c[nH]c2ccccc12)NC(=O)[C@H](C)NC(=O)[C@H](CCCNC(=N)N)NC(=O)[C@H](CCCNC(=N)N)NC(=O)[C@H](CCCNC(=N)N)NC(=O)[C@H](C)NC(=O)[C@H](CC(=O)O)NC(=O)[C@H](CCC(N)=O)NC(=O)[C@@H](NC(=O)[C@H](Cc1c[nH]c2ccccc12)NC(=O)[C@H](CCCCN)NC(=O)[C@@H](Cc1c[nH]c2ccccc12)NC(=O)[C@H](CCCNC(=N)N)NC(=O)[C@H](CCC(N)=O)NC(=O)[C@H](Cc1c[nH]cn1)NC(=O)[C@H](CCSC)NC(=O)[C@@H](N)CC(C)C)[C@@H](C)CC)[C@@H](C)CC)[C@@H](C)CC)[C@@H](C)O)C(N)=O` [compound 1990, dW12, W23-LA-PTH(7-36)-1990] (H-LMHQR[dW]KWIQDARRRAWLHKLIAEIHTAEI-NH2; N-terminus assumed), the “inverse agonist properties on constitutively active PTHR1-T410P (basal cAMP)” value on human PTHR1-T410P is given as “inverse agonist response”.
On the same count and under the same terms, in the case of `CCCC[C@H](NC(=O)[C@@H](N)CC(C)C)C(=O)N[C@@H](Cc1c[nH]cn1)C(=O)N[C@@H](CCC(N)=O)C(=O)N[C@@H](CCCNC(=N)N)C(=O)N[C@H](Cc1c[nH]c2ccccc12)C(=O)N[C@@H](CCCCN)C(=O)N[C@@H](Cc1c[nH]c2ccccc12)C(=O)N[C@H](C(=O)N[C@@H](CCC(N)=O)C(=O)N[C@@H](CC(=O)O)C(=O)N[C@@H](C)C(=O)N[C@@H](CCCNC(=N)N)C(=O)N[C@@H](CCCNC(=N)N)C(=O)N[C@@H](CCCNC(=N)N)C(=O)N[C@@H](C)C(=O)N[C@@H](Cc1c[nH]c2ccccc12)C(=O)N[C@@H](CC(C)C)C(=O)N[C@@H](Cc1c[nH]cn1)C(=O)N[C@@H](CCCCN)C(=O)N[C@@H](CC(C)C)C(=O)N[C@H](C(=O)N[C@@H](C)C(=O)N[C@@H](CCC(=O)O)C(=O)N[C@H](C(=O)N[C@@H](Cc1c[nH]cn1)C(=O)N[C@H](C(=O)N[C@@H](C)C(=O)N[C@@H](CCC(=O)O)C(=O)N[C@H](C(N)=O)[C@@H](C)CC)[C@@H](C)O)[C@@H](C)CC)[C@@H](C)CC)[C@@H](C)CC` [compound 1992, Nle8, dW12, W23-LA-PTH(7-36)-1992] (H-L[Nle]HQR[dW]KWIQDARRRAWLHKLIAEIHTAEI-NH2; N-terminus assumed) it was “inverse agonist response”.
